{"source": "patent US11072592B2", "about": "“Small molecules that enable cartilage rejuvenation” (The Regents of the University of California, priority 2015, dated 2021)", "test_system": "human adult articular chondrocytes", "assay": "Cellular metabolism (Seahorse ECAR and OCR), human adult articular chondrocytes", "format": "cell-based", "description": "The mitochondrial assay cellular oxygen consumption and mitochondrial function was carried out to measure basal respiration using XF24 instrument (Seahorse Biosciences) according to manufacturer instructions. Tested cells (100,000 cells per well) we plated into 24-well test plates 48 hours prior to experimentation. Oxygen consumption rates and extracellular acidification rates were measured every 10 minutes for up to 60 minutes (Rate 1-6).", "data": [{"smiles": "Brc1ccc(Nc2nc(-c3ccccc3)cs2)cc1", "note": "[RCGD 423, N-(4-Bromophenyl)-4-phenyl-1,3-thiazol-2-amine]", "values": [{"measurement": "cellular respiration", "result": "increased"}, {"measurement": "levels of glycolysis", "result": "unchanged"}]}]}
